One may read the IC50 as the concentration at which inhibition is half-maximal.

The text below walks through data of patent publication US20240360103A1, “COMPLEMENT INHIBITION” (Apellis Pharmaceuticals, Inc., priority 2021, published 2024).

Structures are written as SMILES.

The target of this test is C3 convertase (CVF:Bb) (Homo sapiens, UniProt P00751). The test can be described thus: C3 Convertase Assay (biochemical assay, compound contacted with CVF:Bb, then C3 substrate added). The text has this: Various technologies are available for assessing provided compounds, compositions and methods. In some embodiments, a useful assay is an assay described below. […] In some embodiments, a purified, isolated or enriched C3 convertase is utilized. […] In some embodiments, a compound was first contacted with CVF:Bb, followed by addition of C3 substrates. As those skilled in the art will appreciate, products C3a and/or C3b could be detected through a number of technologies (e.g., antibodies specific for a product) and reduction of levels of one or both of them could be utilized to assess inhibition.
Chain of C3 convertase (CVF:Bb) (P00751 260-764 limits assumed): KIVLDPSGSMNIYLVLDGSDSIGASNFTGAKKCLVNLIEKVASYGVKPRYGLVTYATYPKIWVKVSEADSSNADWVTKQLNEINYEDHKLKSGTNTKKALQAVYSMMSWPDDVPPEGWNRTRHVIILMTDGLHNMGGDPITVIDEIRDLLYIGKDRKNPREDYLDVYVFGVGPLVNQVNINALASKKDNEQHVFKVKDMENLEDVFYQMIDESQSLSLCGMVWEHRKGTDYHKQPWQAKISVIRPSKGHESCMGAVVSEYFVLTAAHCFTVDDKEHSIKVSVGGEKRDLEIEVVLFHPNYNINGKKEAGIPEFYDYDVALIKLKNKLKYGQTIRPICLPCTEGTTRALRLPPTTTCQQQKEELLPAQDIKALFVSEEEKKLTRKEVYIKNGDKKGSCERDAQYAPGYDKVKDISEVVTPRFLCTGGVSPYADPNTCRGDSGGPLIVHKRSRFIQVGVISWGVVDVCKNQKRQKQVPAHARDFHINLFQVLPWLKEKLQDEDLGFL

In turn, `COc1cc(C)c2[nH]ccc2c1CN1CCN(Cc2ccccc2)CC1c1ccc(C(=O)O)cc1` (centres unmarked) yielded a concentration for half-maximal inhibition (IC50) of 5240 nM. Consider `COc1cc(C)c2[nH]ccc2c1CN1CCN(S(C)(=O)=O)CC1c1ccc(C(=O)O)cc1` (centres unmarked), for which the 50% inhibitory concentration (IC50) came to 9330 nM.

On to `COc1cc(C)c2[nH]ccc2c1CN1CCN(C(C)=O)CC1c1ccc(C(=O)O)cc1` (centres unmarked), for which the half-inhibitory concentration (IC50) was more than 10000 nM. As for `COc1cc(C)c2[nH]ccc2c1CN1CCN(c2ccccc2)CC1c1ccc(C(=O)O)cc1` (centres unmarked), the figure is more than 10000 nM; as for `COc1cc(C)c2[nH]ccc2c1CN1CCNCC1c1ccc(C(=O)O)cc1` (centres unmarked), more than 10000 nM; as for `COc1cc(C)c2[nH]ccc2c1CN1CCN(C(C)C)CC1c1ccc(C(=O)O)cc1` (centres unmarked), 652 nM. Turning to `COc1cc(C)c2[nH]ccc2c1CN1CCN(CC2CC2)CC1c1ccc(C(=O)O)cc1` (centres unmarked), it took 2290 nM to reach half-maximal inhibition (IC50). Take `COc1cc(C)c2[nH]ccc2c1CN1CCN(CC(C)C)CC1c1ccc(C(=O)O)cc1` (centres unmarked): half-maximal inhibition (IC50) was put at 4670 nM. In turn, `COc1cc(C)c2[nH]ccc2c1CN1CCN(C2CCC2)CC1c1ccc(C(=O)O)cc1` (centres unmarked) displayed a half-inhibitory concentration (IC50) of 2580 nM. `COc1cc(C)c2[nH]ccc2c1C(=O)N1CCN(C)CC1c1ccc(C(=O)O)cc1` (centres unmarked) had a half-maximal inhibitory concentration (IC50) of more than 10000 nM.

`COc1cc(C)c2[nH]ccc2c1CN1CCN(C2CCCC2)CC1c1ccc(C(=O)O)cc1` (centres unmarked) gave a 50% inhibitory concentration (IC50) of 3880 nM.

On to `CCC(C)N1CCN(Cc2c(OC)cc(C)c3[nH]ccc23)C(c2ccc(C(=O)O)cc2)C1` (centres unmarked), for which the midpoint of inhibition, the IC50, lay at 405 nM. `CCCCN1CCN(Cc2c(OC)cc(C)c3[nH]ccc23)C(c2ccc(C(=O)O)cc2)C1` (centres unmarked) came in with an IC50 of 980 nM.

Compound `CCC(C)CN1CCN(Cc2c(OC)cc(C)c3[nH]ccc23)C(c2ccc(C(=O)O)cc2)C1` (centres unmarked) had an IC50 of 6590 nM.

Regarding `COc1cc(C)c2[nH]ccc2c1CN1CCN(CCC(C)C)CC1c1ccc(C(=O)O)cc1` (centres unmarked), 3200 nM corresponded to half-maximal inhibition (IC50). This IC50 lies about 2.1-fold lower than the previous one. As for `COc1cc(C)c2[nH]ccc2c1CN1CCN(CC2CCCC2)CC1c1ccc(C(=O)O)cc1` (centres unmarked), the IC50 came out at 3080 nM.

`COc1cc(C)c2[nH]ccc2c1CN1CCN(C2COC2)CC1c1ccc(C(=O)O)cc1` (centres unmarked) had a half-inhibitory concentration (IC50) of more than 10000 nM. `Cc1ccc(CN2CCN(C)CC2c2ccc(C(=O)O)cc2)c2cc[nH]c12` (centres unmarked) yielded an IC50 of 479 nM. `CN1CCN(Cc2cccc3[nH]ccc23)C(c2ccc(C(=O)O)cc2)C1` (centres unmarked): the IC50 was more than 10000 nM. As for `C#CCN1CCN(Cc2c(OC)cc(C)c3[nH]ccc23)C(c2ccc(C(=O)O)cc2)C1` (centres unmarked), the figure is 1070 nM; as for `COc1cc(C)c2[nH]ccc2c1CN1CCN(CCO)CC1c1ccc(C(=O)O)cc1` (centres unmarked), 119 nM. In turn, `COc1cc(C)c2[nH]ccc2c1CN1CCN(CC2CCC2)CC1c1ccc(C(=O)O)cc1` (centres unmarked) gave a half-maximal inhibitory concentration (IC50) of 1350 nM. Take `COCCN1CCN(Cc2c(OC)cc(C)c3[nH]ccc23)C(c2ccc(C(=O)O)cc2)C1` (centres unmarked): the half-inhibitory concentration (IC50) was found to be 221 nM.

Compound `COc1cc(C)c2[nH]ccc2c1CN1CCN(CCF)C[C@@H]1c1ccc(C(=O)O)cc1` had an IC50 of 42 nM. Consider `COc1cc(C)c2[nH]ccc2c1CN1CCN(CC(F)F)C[C@H]1c1ccc(C(=O)O)cc1`, for which the concentration for half-maximal inhibition (IC50) amounted to 28 nM. `COc1cc(C)c2[nH]ccc2c1CN1CCN(Cc2ncco2)C[C@H]1c1ccc(C(=O)O)cc1` showed an IC50 of 9110 nM.

`COc1cc(C)c2[nH]ccc2c1CN1CCN(Cc2ncco2)C[C@@H]1c1ccc(C(=O)O)cc1`: the concentration for half-maximal inhibition (IC50) was more than 10000 nM. In turn, `Cc1cc(C2CC2)c(CN2CCN(CC(F)(F)F)C[C@H]2c2ccc(C(=O)O)cc2)c2cc[nH]c12` had an IC50 of 348 nM. As for `COc1cc(C)c2[nH]ccc2c1CN1CCN(c2nccs2)C[C@H]1c1ccc(C(=O)O)cc1`, the IC50 was more than 10000 nM.

Regarding `COc1cc(Cl)c2[nH]ccc2c1CN1CCN(CC(F)(F)F)C[C@@H]1c1ccc(C(=O)O)cc1`, the half-maximal inhibitory concentration (IC50) is more than 10000 nM. The compound `COc1cc(Cl)c2[nH]ccc2c1CN1CCN(CC(F)(F)F)C[C@H]1c1ccc(C(=O)O)cc1` had a concentration for half-maximal inhibition (IC50) of 2350 nM. With `COc1cc(Cl)c2[nH]ccc2c1CN1CCN(CC(F)(F)F)CC1c1ccc(C(=O)O)cc1` (centres unmarked), the IC50 turned out to be 2700 nM. For `COc1cc(C)c2[nH]ccc2c1CN1CC2(CC2)N(C)C[C@H]1c1ccc(C(=O)O)cc1`, the midpoint of inhibition, the IC50, lay at 7390 nM. Compared with the last compound, the IC50 is about 2.7-fold higher.

Compound `COc1cc(C)c2[nH]ccc2c1CN1CCN(CC(F)F)C[C@H]1c1ccc(C(=O)NS(=O)(=O)C2CC2)cc1` displayed a 50% inhibitory concentration (IC50) of 520 nM. This IC50 lies about 14-fold lower than the previous one. Consider `Cc1cc(C2CC2)c(CN2CCN(CC(F)F)C[C@@H]2c2ccc(C(=O)O)cc2)c2cc[nH]c12`, for which the IC50 came out at 163 nM. As for `COc1cc(C)c2[nH]ccc2c1CN1CCN(CC(F)F)C[C@@H]1c1ccc(C(=O)O)cc1`, the figure is 80 nM; as for `COc1cc(C)c2[nH]ccc2c1CN1CCN(c2cccnn2)C[C@H]1c1ccc(C(=O)O)cc1`, more than 10000 nM; as for `COc1cc(C)c2[nH]ccc2c1CN1CCN(CCCF)C[C@H]1c1ccc(C(=O)O)cc1`, 99 nM. For the compound `COc1cc(C)c2[nH]ccc2c1CN1CCN(c2ncccn2)C[C@H]1c1ccc(C(=O)O)cc1`, the IC50 is more than 10000 nM. As for `COc1cc(C)c2[nH]ccc2c1CN1CCN(C)C[C@@H]1c1ccc(C(=O)O)cc1` (single isomer, unassigned), the figure is more than 10000 nM. `COc1cc(C)c2[nH]ccc2c1CN1CCN(C2CC2)C[C@@H]1c1ccc(C(=O)O)cc1` (single isomer, unassigned) had an IC50 of 4380 nM. This lies in the single-digit micromolar range. As for `COc1cc(C)c2[nH]ccc2c1CN1CCN(C2CC2)C[C@H]1c1ccc(C(=O)O)cc1` (single isomer, unassigned), the figure is 96 nM; as for `COc1cc(Cl)c2[nH]ccc2c1CN1CCN(CC(F)F)C[C@H]1c1ccc(C(=O)O)cc1` [drawing 436], 1490 nM. As to `COc1cc(Cl)c2[nH]ccc2c1CN1CCN(CC(F)F)C[C@H]1c1ccc(C(=O)O)cc1` [drawing 446], the half-inhibitory concentration (IC50) is 3150 nM.
